Laboratory results as given in the NIST ThermoML archive (doi:10.1021/je300938w).
± gives the expanded uncertainty stated by the source.

Columns and labels:
[1] = wn = mass fraction of the nth substance listed; settings: 101 kPa, Liquid; for viscosity: Concentric cylinders viscometry; for mass density: Vibrating tube method
[2] = refractive index (Na D-line) (dimensionless); wn = mass fraction of the nth substance listed; settings: 101 kPa, Liquid, Standard Abbe refractometry

OCCNCCO [diethanolamine] + O
Settings	mass density, [1] [kg/m3]	refractive index, [2]	viscosity, [1] [mPa·s]
298.15 K, w1 = 0.05	1003.46 ± 0.042	1.3394 ± 0.00031	1.059 ± 0.0073
298.15 K, w1 = 0.1	1009.09 ± 0.045	1.34654 ± 0.00031	1.27 ± 0.0079
298.15 K, w1 = 0.15	1014.94 ± 0.049	1.35439 ± 0.00031	1.503 ± 0.0088
298.15 K, w1 = 0.2	1020.92 ± 0.052	1.36184 ± 0.00031	1.893 ± 0.01
298.15 K, w1 = 0.25	1027.11 ± 0.056	1.37017 ± 0.00031	2.376 ± 0.012
303.15 K, w1 = 0.05	1001.98 ± 0.042	1.33875 ± 0.00031	0.9498 ± 0.007
303.15 K, w1 = 0.1	1007.53 ± 0.045	1.34585 ± 0.00031	1.129 ± 0.0075
303.15 K, w1 = 0.15	1013.27 ± 0.048	1.35368 ± 0.00031	1.319 ± 0.0081
303.15 K, w1 = 0.2	1019.14 ± 0.051	1.36108 ± 0.00031	1.649 ± 0.0093
303.15 K, w1 = 0.25	1025.19 ± 0.055	1.36935 ± 0.00031	2.05 ± 0.011
308.15 K, w1 = 0.05	1000.3 ± 0.041	1.33801 ± 0.00031	0.8569 ± 0.0067
308.15 K, w1 = 0.1	1005.77 ± 0.044	1.34511 ± 0.00031	1.013 ± 0.0072
308.15 K, w1 = 0.15	1011.42 ± 0.047	1.35288 ± 0.00031	1.174 ± 0.0076
308.15 K, w1 = 0.2	1017.18 ± 0.051	1.36028 ± 0.00031	1.455 ± 0.0086
308.15 K, w1 = 0.25	1023.11 ± 0.054	1.36847 ± 0.00031	1.795 ± 0.0098
313.15 K, w1 = 0.05	998.43 ± 0.041	1.3372 ± 0.00031	0.7792 ± 0.0065
313.15 K, w1 = 0.1	1003.83 ± 0.043	1.34427 ± 0.00031	0.9142 ± 0.0069
313.15 K, w1 = 0.15	1009.39 ± 0.046	1.35208 ± 0.00031	1.051 ± 0.0073
313.15 K, w1 = 0.2	1015.05 ± 0.05	1.35939 ± 0.00031	1.295 ± 0.0081
313.15 K, w1 = 0.25	1020.89 ± 0.053	1.36756 ± 0.00031	1.585 ± 0.009
318.15 K, w1 = 0.05	996.373 ± 0.042	1.33633 ± 0.00031	0.7137 ± 0.0064
318.15 K, w1 = 0.1	1001.71 ± 0.042	1.3434 ± 0.00031	0.8307 ± 0.0067
318.15 K, w1 = 0.15	1007.2 ± 0.046	1.35122 ± 0.00031	0.948 ± 0.007
318.15 K, w1 = 0.2	1012.78 ± 0.049	1.35862 ± 0.00031	1.161 ± 0.0076
318.15 K, w1 = 0.25	1018.51 ± 0.053	1.36659 ± 0.00031	1.411 ± 0.0085
323.15 K, w1 = 0.05	994.141 ± 0.043	1.33539 ± 0.00031	0.653 ± 0.0062
323.15 K, w1 = 0.1	999.439 ± 0.042	1.34245 ± 0.00031	0.7593 ± 0.0065
323.15 K, w1 = 0.15	1004.85 ± 0.045	1.35028 ± 0.00031	0.8599 ± 0.0067
323.15 K, w1 = 0.2	1010.35 ± 0.048	1.35777 ± 0.00031	1.048 ± 0.0073
323.15 K, w1 = 0.25	1016 ± 0.052	1.36557 ± 0.00031	1.266 ± 0.008
328.15 K, w1 = 0.05	991.746 ± 0.044	1.33442 ± 0.00031	0.6017 ± 0.0061
328.15 K, w1 = 0.1	996.992 ± 0.043	1.34148 ± 0.00031	0.6969 ± 0.0063
328.15 K, w1 = 0.15	1002.36 ± 0.044	1.34935 ± 0.00031	0.7836 ± 0.0065
328.15 K, w1 = 0.2	1007.78 ± 0.047	1.3568 ± 0.00031	0.9519 ± 0.007
328.15 K, w1 = 0.25	1013.36 ± 0.051	1.36453 ± 0.00031	1.141 ± 0.0075
333.15 K, w1 = 0.05	989.2 ± 0.045	1.3334 ± 0.00031	0.5596 ± 0.0059
333.15 K, w1 = 0.1	994.401 ± 0.044	1.34044 ± 0.00031	0.643 ± 0.0062
333.15 K, w1 = 0.15	999.713 ± 0.043	1.3485 ± 0.00031	0.7178 ± 0.0064
333.15 K, w1 = 0.2	1005.07 ± 0.046	1.35582 ± 0.00031	0.8673 ± 0.0068
333.15 K, w1 = 0.25	1010.55 ± 0.05	1.36354 ± 0.00031	1.037 ± 0.0073
338.15 K, w1 = 0.05	986.501 ± 0.046	1.33234 ± 0.00031	0.5269 ± 0.0059
338.15 K, w1 = 0.1	991.668 ± 0.045	1.33938 ± 0.00031	0.5932 ± 0.006
338.15 K, w1 = 0.15	996.929 ± 0.044	1.34755 ± 0.00031	0.6619 ± 0.0062
338.15 K, w1 = 0.2	1002.23 ± 0.045	1.3547 ± 0.00031	0.799 ± 0.0066
338.15 K, w1 = 0.25	1007.44 ± 0.048	1.36244 ± 0.00031	0.9543 ± 0.007
343.15 K, w1 = 0.05	983.659 ± 0.047	1.33122 ± 0.00031	0.5002 ± 0.0058
343.15 K, w1 = 0.1	988.796 ± 0.046	1.3382 ± 0.00031	0.5534 ± 0.0059
343.15 K, w1 = 0.15	993.878 ± 0.045	1.34633 ± 0.00031	0.6185 ± 0.0061
343.15 K, w1 = 0.2	999.25 ± 0.045	1.35356 ± 0.00031	0.7459 ± 0.0065
343.15 K, w1 = 0.25	1004.41 ± 0.047	1.3614 ± 0.00031	0.8922 ± 0.0068
